Laboratory results as given in patent US20240415805A1 (priority 2023, published 2024).
“Also recorded” adds a separate entry of the source.

Legend:
[1] = system: Pg 33277; experiment: Antibiotic protection assay: invasion of Pg cells into human primary oral keratinocytes; format: cell-based; conditions: Porphyromonas gingivalis, 33277, Keratinocyte, read-out: Pg inhibited from entry into HOKs
Description: Inhibition of Pg cells invasion by GM. The ability of Pg to invade oral epithelial cells was determined using an antibiotic protection assay as described^28. Human primary oral keratinocytes (HOKs, 5×10^4 cells, ScienCell® Research Laboratories) were seeded in a 24-well plate. After incubating with Pg 33277 for 1 h, HOKs were continually cultured for another 4 h in the presence of antibiotics (gentamicin (300 μg/ml) and metronidazole (200 μg/ml)) to eliminate extracellular bacteria. The HOKs were then lysed, and the internalized bacteria were plated on TSB blood agar plates. The plates were incubated anaerobically at 37° C. for 7 days, and CFUs of Pg were enumerated. […] In the presence of 40 nM GM, more than 95% of Pg were inhibited from entry into HOKs. In addition, the role of GM in Pg re-entry was tested. After exposure to Pg cells for 1 h and then antibiotic treatment for 4 h, HOKs were continuously cultured for 24 h in the presence of GM (20 nM), antibiotics, or GM and antibiotics. Intracellular Pg was determined as described^28. As expected, intracellular Pg cells moved in and out of the HOKs.

[2] = system: HOKs; experiment: HOK cell viability (Promega CellTiter-Glo); format: cell-based, human; conditions: 48 h
Description: Each bar represents the mean±standard deviation of luminescence levels representing relative the number of viable cells. Data are the mean of at least three independent experiments.
To examine potential cytotoxic effects of GM, HOKs were cultured in the presence of a range of GM from 0 to 1,000 nM for 48 h and the number of viable cells in the culture was determined using Promega™ CellTiter-Glo™.

[3] = system: Pg 33277 vesicles; conditions: 30 μM; previously reported; cited from earlier work

For `C=C(C)[C@@]12C[C@@H](COC(=O)c3ccccc3)[C@@]34OC5(O[C@@H]1[C@@H]3[C@@H]1O[C@]1(CO)[C@@H](O)[C@@]1(O)[C@H]4[C@H]([C@H](C)[C@@H]1OC(=O)c1ccccc1)[C@H](C)CCCCCC[C@H]5O)O2` [GM, gnidimacrin], the inhibition at 0.04 µM [1] was > 95%, the “cell viability of HOKs” value ([2]; GM 0 to 1,000 nM, as high as luM) was “does not affect host cell viability; also recorded: no impact” and the “highest concentration without viability effect relative to the concentration that inhibits Pg invasion” value ([2]; HOKs) was “approximately 50 times”.

For `O=C(N/N=C/c1ccc(O)c(O)c1)c1cc2ccccc2cc1O` [dynasore], the Pg vesicle invasion [3] is given as “inhibited the vesicle invasion”.
